Measurements as given in patent US7790698B2, “Use of adenosine receptor agonists in therapy” (Cambridge Biotechnology Ltd, priority 2003, dated 2010).
≈ marks a conversion by molar mass, not a printed value.

Assays:
[1] = test system: carrageenan (CGN) induced inflammation; assay: carrageenan induced inflammation, paw volume by plethysomometry (Example 1, FIG. 1); assay type: in vivo
Method: Carrageenan (2%, 10 microlitres) was administered into the right hind paw, and the paw volume assessed by plethysomometry. 2-methoxyadenosine was administered at the same time as carrageenan. 2-methoxyadenosine was as effective as indomethacin (Indo, 3 mg/kg p.o.).

[2] = test system: blood pressure and heart rate; assay: radiotelemetry of blood pressure and heart rate (Example 2, FIG. 2); assay type: in vivo, rat; conditions: 0.6 mg/kg p.o., rats
Method: FIG. 2: An implantable radiotelemetry device was placed in the abdominal cavity of 6 rats per group. The pressure catheter of the device was inserted in the abdominal aorta and two electrodes tunnelised under the skin in a lead II position (left side of abdominal cavity/right shoulder). Individual rats were placed in their own cage on a radioreceptor (DSI) for data acquisition. The effect of 0.6 mg/kg 2-methoxyadenosine or vehicle (p.o.) on blood pressure was then assessed. A: blood pressure; B: heart rate.

[3] = plasma concentration over time after administration (Example 3, FIG. 3); assay type: in vivo, rat
Method: The EC50 value of 2-methoxyadenosine at the adenosine A2A receptor is 900 ng/ml (3 μM). […] It can be seen that the plasma concentration remains above 2% of the EC50 value for more than 3 hours. Anti-inflammatory effects have been observed (without blood pressure changes) when the peak and maintained plasma concentrations are as low […] (i.e. 2% of the EC50 value determined in vitro).

[4] = test system: carageenan-induced oedema in a rat paw; conditions: rats, 20 mg/kg po; cited from earlier work
[5] = test system: mean blood pressure and heart rate; conditions: rats, 20 mg/kg po; cited from earlier work
adenosine A2A receptor = conditions: cited from earlier work

For `COc1nc(N)c2ncn([C@@H]3O[C@H](CO)[C@@H](O)[C@H]3O)c2n1` [2-methoxyadenosine], the “effect on blood pressure” value ([1]; 62.4 and 624 μg/kg i.p.) was “without affecting blood pressure”, the “inhibition of carrageenan (CGN) induced inflammation (paw volume)” value ([1]; 62.4 and 624 μg/kg i.p., given at the same time as carrageenan, versus indomethacin 3 mg/kg po) was “comparable efficacy to indomethacin” and the “plasma concentration at which profound anti-inflammatory activity is seen” value ([1]; plasma concentration) was ≤ 0.2 µM. The “effect on blood pressure” value [2] was “no significant effect”, the “effect on heart rate” value [2] was “no significant effect” and the “time the plasma concentration remains above 2% of the EC50 value” ([3]; 0.6 mg/kg to a rat) was “more than 3 hours”. The “peak and maintained plasma concentration at which anti-inflammatory effects were observed without blood pressure changes” value ([3]; as low as, stated as 2% of the EC50 value) was 8 ng/mL, the “effect on blood pressure when the peak plasma concentration reaches the EC50 value” ([3]; peak plasma concentration 900 ng/ml, lasts for many hours) was “profound reductions in blood pressure” and the “inhibition of carageenan-induced inflammation” value [4] was 25%. For the same molecule, the “reduction in heart rate” value [5] was 25%, the “reduction in mean blood pressure” value [5] was 41% and the EC50 (adenosine A2A receptor; Daly et al. 1993) was 3 µM. For the same molecule, the “EC50 value at the adenosine A2A receptor” value (adenosine A2A receptor; determined in vitro) was 0.9 µg/mL (≈ 3.03 µM).
